According to patent US7070778B2, “Therapeutical combination against cancer” (Laboratoire Goemar SA, priority 2003, dated 2006):

Test system: BT-474 human breast carcinoma
Assay: Effect on the tumor growth: BT-474 human breast carcinoma xenograft in nude mice
Format: in vivo
Settings: for Average daily weight of the tumor: Group 6: Paclitaxel 16 mg/kg i.p. once a day for 5 days
Protocol: Female nude mice (nulnu) between 5 and 6 weeks of age weighing approximately 20 g were obtained from Harlan, Inc. (Madison, Wis.). The BT-474 human breast carcinoma cell line was obtained from the American Type Culture Collection (ATCC). BT-474 was established by E. Lasfargues and W. G. Coutinho from a solid carcinoma of the breast obtained from a patient (2). Twenty-one-day release 17β-estradiol pellets at 0.25 mg (Innovative Research of America) were implanted subcutaneously into each mouse. The following day, animals were implanted s.c. by trocar with fragments of human tumor carcinomas harvested from s.c. growing tumors in nude mice hosts. When the tumors were approximately 40 mg in size (24 days following inoculation), the animals were pair-matched into treatment and control groups. All of the groups contained 9 mice. All of the animals were ear-tagged and followed individually throughout the experiment.
The mice of each group were administered intra peritoneally with 2 ml of the following composition:
Group 1: (control) sterile H2O, 5 times a day
Mice were weighed twice weekly, and tumor measurements were obtained using calipers twice weekly, starting on Day 1. These tumor measurements were converted to mg tumor weight by the standard formula, (W^2×L)/2 (2). The experiment was terminated when the control group tumor size reached an average of 500 mg. Upon termination (Day 46), the mice were weighed, sacrificed and their tumors were excised. The tumors were weighed, and the mean tumor weight per group was calculated.
With this agent, the final weight of a given tumor was subtracted from its own weight at the start of treatment on Day 1. This difference was divided by the initial tumor weight to give the % regression. A mean % tumor regression was calculated from data from mice in a group that experienced tumor regressions.

Question: With CC(=O)O[C@H]1C(=O)[C@@]2(C)[C@H]([C@H](OC(=O)c3ccccc3)[C@]3(O)C[C@H](OC(=O)[C@H](O)[C@@H](NC(=O)c4ccccc4)c4ccccc4)C(C)=C1C3(C)C)[C@]1(OC(C)=O)CO[C@@H]1C[C@@H]2O [Paclitaxel] as the compound, how does the “tumor regression (in words)” value (Paclitaxel 16 mg/kg i.p. once a day for 5 days) read?
Answer: caused tumor regression

Question: What about the “Average daily weight of the tumor” value (day 5) of the same compound?
Answer: 3906 mg

Question: And the “Average daily weight of the tumor” value (day 9)?
Answer: 54.2 mg

Question: And the “Average daily weight of the tumor” value (day 16)?
Answer: 77.3 mg

Question: What about the “Average daily weight of the tumor” value (day 19) of the same compound?
Answer: 79.4 mg

Question: What about the “Average daily weight of the tumor” value (day 23) of the same compound?
Answer: 108.0 mg

Question: And the “Average daily weight of the tumor” value (day 26)?
Answer: 123.8 mg

Question: And the “Average daily weight of the tumor” value (day 29)?
Answer: 149.5 mg

Question: What about the “Average daily weight of the tumor” value (day 32) of the same compound?
Answer: 188.8 mg

Question: What about the “Average daily weight of the tumor” value (day 36) of the same compound?
Answer: 220.3 mg

Question: What about the “Average daily weight of the tumor” value (day 39) of the same compound?
Answer: 244.8 mg

Question: And the “Average daily weight of the tumor” value (day 43)?
Answer: 299.6 mg

Question: What about the “Average daily weight of the tumor” value (day 46) of the same compound?
Answer: 376.3 mg
